This note sets out measurements from paper PMC7318308, “A Novel Synthetic Dual Agonistic Liposomal TLR4/7 Adjuvant Promotes Broad Immune Responses in an Influenza Vaccine With Minimal Reactogenicity” (Frontiers in Immunology, 2020).

Molecules are shown by their SMILES.

Data set [1] has as its system HEK-Blue mTLR4 reporter cells. The data set is described as follows: MTT cell viability, murine TLR4 reporter cells. In kind it is cell-based. The note with it: concentrations below 10 µM, MTT. As for the experimental part: (§1) TLR4/NF-κB activation was assessed using HEK-Blue™ hTLR4 and HEK-Blue™ mTLR4 (InvivoGen). The cells were treated with 1Z105 and 2B182C (2-fold serial dilutions starting from 10 μM) for 20 h. NF-κB inducible secreted embryonic alkaline phosphatase (SEAP) protein in the culture supernatant was measured according to manufacturer's protocol. To evaluate cell viability, 0.5 mg/mL 3-[4,5-dimethylthiazol-2-yl]-2,5-dipheyl tetrazolium bromide (MTT, Thermo Fisher Scientific) solution was added to each well and incubated at 37°C. Six hours later, formazan crystals were lysed with lysis buffer (15% SDS and 0.12% 12 N HCl) and the absorbance was measured at 570 nm using 650 nm as a reference with a plate reader (Tecan, Switzerland).
Human TLR4 reporter cells Murine TLR4 reporter cells
[Compound] 1 μM 10 [Compound] 1 μM 10
Supplementary Figure 1. Dose response curves for cell viability (toxicity) of lead compounds in human and murine TLR4-NF-κB reporter cells. Cellular toxicity evaluated by MTT assay is presented as % viability normalized to vehicle (0.5% DMSO) as 100%. While 1Z105 had minimal toxicity in both hTLR4 and mTLR4 reporter cells (HEK-BlueTM hTLR4 and HEK-BlueTM mTLR4, […]
(also on this page, place not known: %Relative (Normalized 100%) 101101 viability vehicle as to)

Data set [2] concerns TLR4-NF-κB reporter cells. The data set can be described thus: MTT cell viability in TLR4-NF-κB reporter cells. The data set is classed as cell-based. The following applies: for toxicity in cell-based MTT assay (in words): viability at 5 μM in Figure 1C, normalized to vehicle. How it is done: (§2) Figure 1 Structure-activity relationship studies in TLR4 agonistic pyrimidoindoles. (A) Syntheses of C8-alkynyl and C8-alkyl analogs. (B) Syntheses of C8-aryl analogs. (C) Scatter plot of hTLR4 and mTLR4 agonistic activity in TLR4-NF-κB HEK reporter cells (HEK-Blue™ hTLR4 and HEK-Blue™ mTLR4, respectively). NF-κB inducible NF-κB SEAP levels in culture supernatants were measured according to manufacturer's protocol. The TLR4 agonistic potency was evaluated as area under the curve (AUC) calculated for dose response curve using 2-fold serial dilutions from 10 μM, and normalized to the AUC for 2B110 as 100% on both axes. […] The color of each point is based on cell viability in TLR4-NF-κB reporter cells for compounds evaluated at 5 μM concentration. Viability data was normalized to vehicle control (Vehicle OD570−650 = 0.58 ± 0.01). (D) Structures of the lead compounds with differences at C8 substitution highlighted in blue.
as §1

In a further data set the target is T1, mouse TLR4 (Mus musculus, UniProt Q9JHF9+Q9QUK6).
T1 construct: host or cells: HEK-Blue mTLR4 (HEK293-derived NF-κB/SEAP reporter cells)
T1 sequence (Q9QUK6 26-835): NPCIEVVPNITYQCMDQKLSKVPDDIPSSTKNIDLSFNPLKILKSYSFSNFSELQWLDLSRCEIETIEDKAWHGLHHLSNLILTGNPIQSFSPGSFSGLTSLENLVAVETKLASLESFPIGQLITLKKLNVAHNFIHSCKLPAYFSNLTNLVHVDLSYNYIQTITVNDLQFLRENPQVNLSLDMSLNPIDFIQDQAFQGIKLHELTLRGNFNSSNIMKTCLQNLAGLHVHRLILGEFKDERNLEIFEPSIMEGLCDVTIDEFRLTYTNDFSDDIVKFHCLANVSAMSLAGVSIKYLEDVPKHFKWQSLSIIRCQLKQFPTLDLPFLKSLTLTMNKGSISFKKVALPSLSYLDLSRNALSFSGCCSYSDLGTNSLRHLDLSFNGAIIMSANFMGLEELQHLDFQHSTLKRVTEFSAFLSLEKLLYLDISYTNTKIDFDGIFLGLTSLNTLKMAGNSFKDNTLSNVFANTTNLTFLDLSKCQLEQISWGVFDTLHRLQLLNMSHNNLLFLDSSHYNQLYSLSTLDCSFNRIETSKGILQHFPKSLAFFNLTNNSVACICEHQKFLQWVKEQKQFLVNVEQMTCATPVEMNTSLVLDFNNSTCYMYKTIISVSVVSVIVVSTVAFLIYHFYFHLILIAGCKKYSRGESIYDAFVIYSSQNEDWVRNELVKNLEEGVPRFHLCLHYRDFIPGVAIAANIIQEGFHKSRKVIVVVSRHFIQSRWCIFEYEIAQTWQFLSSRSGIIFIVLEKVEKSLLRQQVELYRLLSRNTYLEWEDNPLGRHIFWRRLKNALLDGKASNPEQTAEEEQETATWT
T1 sequence (Q9JHF9 19-160): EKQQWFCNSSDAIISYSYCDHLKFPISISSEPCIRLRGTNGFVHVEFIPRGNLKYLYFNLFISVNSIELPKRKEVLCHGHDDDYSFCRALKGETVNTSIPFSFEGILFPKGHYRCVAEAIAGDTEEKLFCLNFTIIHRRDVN
The data set can be described thus: TLR4/NF-κB reporter cell assay (SEAP), HEK-Blue mTLR4. The data set is classed as cell-based. The following applies: for murine TLR4 agonistic activity (in words): AUC normalized to 2B110 as 100%, Figure 1C. How it is done:
as §2
(§3) Titration curves of 1Z105 and derivatives were used to assess their potency in stimulating human and mouse TLR4 response using HEK NF-κB reporter cells (HEK-Blue™ hTLR4 and mTLR4, respectively). The areas under the curve for dose response curves relative to vehicle (0.5% DMSO) were normalized to the greatest activity as 100% of 2B110 for both assays (Figure 1C). The compounds were also tested for in vitro toxicity by MTT assay (Figure 1C, Supplementary Figure 1).
as §1

The next data set addresses T2, human TLR4 (Homo sapiens, UniProt O00206+Q9Y6Y9).
T2 construct: host or cells: HEK-Blue hTLR4 (HEK293-derived NF-κB/SEAP reporter cells)
The data set can be described thus: TLR4/NF-κB reporter cell assay (SEAP), HEK-Blue hTLR4. The note with it: for human TLR4 agonistic activity (in words): AUC normalized to 2B110 as 100%, Figure 1C. The data set is classed as cell-based. As for the experimental part: as §2, §3, §1

For another data set, the system named is TLR4. The data set can be described thus: TLR4 activity in HEK NF-κB reporter cells, species not told apart in the text. In kind it is cell-based, human and mouse. The following applies: HEK-Blue hTLR4 and mTLR4, Figure 1C. As for the experimental part: as §2, §3, §1
The mark [3] stands for this setting: 2-fold serial dilutions from 10 μM, the value taken as 100% for normalisation.

T2 sequence (O00206 24-839): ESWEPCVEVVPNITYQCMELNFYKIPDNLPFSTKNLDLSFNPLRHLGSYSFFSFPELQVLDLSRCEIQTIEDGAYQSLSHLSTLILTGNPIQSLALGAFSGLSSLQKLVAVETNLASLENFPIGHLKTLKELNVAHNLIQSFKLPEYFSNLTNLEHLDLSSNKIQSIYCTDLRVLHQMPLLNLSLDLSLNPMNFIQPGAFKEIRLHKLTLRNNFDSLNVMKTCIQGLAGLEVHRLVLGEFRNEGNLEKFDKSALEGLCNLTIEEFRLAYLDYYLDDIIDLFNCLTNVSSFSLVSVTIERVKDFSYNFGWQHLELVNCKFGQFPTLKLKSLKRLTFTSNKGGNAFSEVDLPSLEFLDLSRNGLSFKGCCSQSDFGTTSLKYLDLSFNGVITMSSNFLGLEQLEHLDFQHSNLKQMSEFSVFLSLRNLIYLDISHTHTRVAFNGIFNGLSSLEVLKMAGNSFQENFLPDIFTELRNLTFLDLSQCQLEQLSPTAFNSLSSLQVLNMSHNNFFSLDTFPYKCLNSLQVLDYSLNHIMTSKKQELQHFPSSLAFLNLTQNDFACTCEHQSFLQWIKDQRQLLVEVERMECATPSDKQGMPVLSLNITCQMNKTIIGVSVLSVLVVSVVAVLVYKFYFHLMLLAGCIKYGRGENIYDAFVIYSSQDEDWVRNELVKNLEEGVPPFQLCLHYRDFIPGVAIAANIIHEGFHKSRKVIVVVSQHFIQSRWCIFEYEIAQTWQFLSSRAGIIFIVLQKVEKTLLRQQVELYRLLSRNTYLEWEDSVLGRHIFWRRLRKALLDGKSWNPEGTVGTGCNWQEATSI
T2 sequence (Q9Y6Y9 17-160 limits assumed): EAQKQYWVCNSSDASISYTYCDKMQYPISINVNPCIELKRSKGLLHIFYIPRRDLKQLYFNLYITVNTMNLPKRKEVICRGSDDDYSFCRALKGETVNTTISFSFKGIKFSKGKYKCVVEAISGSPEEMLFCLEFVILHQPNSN

`Cn1c2ccc(-c3ccccc3)cc2c2nc(SCC(=O)NC3CCCCC3)n(-c3ccccc3)c(=O)c21` [2B110]: in data set [1], the “toxicity at lower concentrations, mTLR4 reporter cells (in words)” value was “more toxic compared to 8s”. The “toxicity at 10 µM (in words)” value in data set [2] (10 µM, MTT, Supplementary Figure 1) was “exhibited toxicity”. In data set [2], the “toxicity in cell-based MTT assay (in words)” value is listed as “slightly higher toxicity in MTT assays than did 2B182C”. The “AUC of dose response curve, mTLR4 reporter cells” value at mouse TLR4 (setting [3]) came to 28.43 ± 5.49 units. The “murine TLR4 agonistic activity (in words)” value on mouse TLR4 is on record as “high TLR4 stimulatory potency”. Also, the “AUC of dose response curve, hTLR4 reporter cells” value at human TLR4 (setting [3]) is reported as 14.95 ± 1.95. Moreover, the “human TLR4 agonistic activity (in words)” value at human TLR4 is “high TLR4 stimulatory potency”.

Turning to `C#Cc1ccc2c(c1)c1nc(SCC(=O)NC3CCCCC3)n(-c3ccccc3)c(=O)c1n2C` [6a], the “TLR4 activity (species not told apart)” value in the data set on TLR4 is given as “reduction in TLR4 activity”.

For the compound `CCCC#Cc1ccc2c(c1)c1nc(SCC(=O)NC3CCCCC3)n(-c3ccccc3)c(=O)c1n2C` [6b], in the data set with TLR4, the “TLR4 activity (species not told apart)” value is recorded as “highest level of TLR4 activation”.

On to `CCCCCC#Cc1ccc2c(c1)c1nc(SCC(=O)NC3CCCCC3)n(-c3ccccc3)c(=O)c1n2C` [6c], for which the “TLR4 activity (species not told apart)” value with TLR4 was “reduction in TLR4 activity”.

On to `CCCCCCCCCCC#Cc1ccc2c(c1)c1nc(SCC(=O)NC3CCCCC3)n(-c3ccccc3)c(=O)c1n2C` [6d], for which the “TLR4 activity (species not told apart)” value in the data set with TLR4 is “completely inactive”.

As to `CCc1ccc(-c2ccc3c(c2)c2nc(SCC(=O)NC4CCCCC4)n(-c4ccccc4)c(=O)c2n3C)cc1` [8d], the “toxicity in cell-based MTT assay (in words)” value in data set [2] is “relatively high toxicity”. Moreover, the “TLR4 activity (species not told apart)” value with TLR4 was “maintaining TLR4 activity”.

Take `CCCCc1ccc(-c2ccc3c(c2)c2nc(SCC(=O)NC4CCCCC4)n(-c4ccccc4)c(=O)c2n3C)cc1` [8e]: the “toxicity in cell-based MTT assay (in words)” value in data set [2] was “relatively high toxicity”. Besides, in the data set with TLR4, the “TLR4 activity (species not told apart)” value is recorded as “maintaining TLR4 activity”.

For `Cn1c2ccc(-c3cccc(-c4ccccc4)c3)cc2c2nc(SCC(=O)NC3CCCCC3)n(-c3ccccc3)c(=O)c21` [8f], the “human TLR4 agonistic activity (in words)” value at human TLR4 was “dramatic loss of human TLR4 activity”.

`COc1cccc(-c2ccc3c(c2)c2nc(SCC(=O)NC4CCCCC4)n(-c4ccccc4)c(=O)c2n3C)c1` [8h]: the “human TLR4 agonistic activity (in words)” value on human TLR4 is reported as “dramatic loss of human TLR4 activity”.

As for `Cn1c2ccc(-c3cccc(N)c3)cc2c2nc(SCC(=O)NC3CCCCC3)n(-c3ccccc3)c(=O)c21` [8k], the “murine TLR4 agonistic activity (in words)” value at mouse TLR4 is on record as “significant loss”. At human TLR4, the “human TLR4 agonistic activity (in words)” value is given as “significant loss”.

On to `Cn1c2ccc(-c3cccc(C(=O)O)c3)cc2c2nc(SCC(=O)NC3CCCCC3)n(-c3ccccc3)c(=O)c21` [8l], for which the “murine TLR4 agonistic activity (in words)” value at mouse TLR4 was “significant loss”. In addition, the “human TLR4 agonistic activity (in words)” value at human TLR4 is “significant loss”.

On to `Cn1c2ccc(-c3cccc(O)c3)cc2c2nc(SCC(=O)NC3CCCCC3)n(-c3ccccc3)c(=O)c21` [8m], for which the “murine TLR4 agonistic activity (in words)” value on mouse TLR4 is “significant loss”. Besides, the “human TLR4 agonistic activity (in words)” value at human TLR4 was “significant loss”.

As to `Cn1c2ccc(-c3cccc(C#N)c3)cc2c2nc(SCC(=O)NC3CCCCC3)n(-c3ccccc3)c(=O)c21` [8n], the “murine TLR4 agonistic activity (in words)” value at mouse TLR4 is listed as “retained murine TLR4 activity”. Further, the “human TLR4 agonistic activity (in words)” value at human TLR4 is reported as “less potent than 2B110”.

Consider `Cn1c2ccc(-c3cccc([N+](=O)[O-])c3)cc2c2nc(SCC(=O)NC3CCCCC3)n(-c3ccccc3)c(=O)c21` [8o], for which the “murine TLR4 agonistic activity (in words)” value at mouse TLR4 was “retained murine TLR4 activity”. Moreover, on human TLR4, the “human TLR4 agonistic activity (in words)” value is recorded as “less potent than 2B110”.
